# From US10538571B2, “Compositions and methods for neurological diseases” (Coda Biotherapeutics, Inc., priority 2017, dated 2020)
# What was measured:
# [1] = test system: spared nerve injury (SNI) model; assay: Spared nerve injury (SNI) model of neuropathic pain, mechanical withdrawal threshold (von Frey, up-down method) after AAV.hSYN-α7-nAChR/GlyRα1 injection; assay type: in vivo, rat; settings: for reversal of mechanical hypersensitivity: single IP injection
# Source text: Eight expression cassettes are constructed using standard molecular biology techniques. All contain a human synapsin-1 (hSYN) promoter linked to engineered chimeric receptors comprising a ligand binding domain of α7-nAChR and a Cys-loop domain and ion pore domain of GlyRα1. Their design is as follows:
# These cassettes are subcloned into AAV bacmids, purified, transfected into Sf9 insect cells to produce recombinant bacuvlovirus, and then amplified. Sf9 cells are double infected using the amplified recombinant baculovirus containing the hSYN-α7-nAChR/GlyRα1 cassettes and another recombinant baculovirus containing the Rep and AAV6(Y705+731F+T492V) Cap genes to produce recombinant AAV vectors. The viral vectors are purified, viral titer determined using qPCR, and SDS-PAGE used to verify the purity of AAV vectors.
# To produce mechanical hypersensitivity in a model that mimics a neuropathic pain condition, the spared nerve injury (SNI) model (a validated model of mechanical allodynia) is used (Shields et al., 2003, The Journal of Pain, 4, 465-470). This model is produced by the sectioning of the common peroneal and the sural nerves and isolating the tibial branch. Mechanical withdrawal threshold is assessed by placing rats on an elevated wire-mesh grid and stimulating the plantar surface of the hind paw with von Frey filaments.
# A dorsal hemilaminectomy is made at the level of the lumbar enlargement to expose two segments (about 1.5-2 mm) of lumbar spinal cord, after which the dura mater is incised and reflected. The viral solution is loaded into a glass micropipette (prefilled with mineral oil). The micropipette is connected to a manual micro-injector mounted on a stereotactic apparatus. The viral solution is targeted to the dorsal horn (left side). Along the rostro-caudal axis within the exposed region, 6 injections of 240 nl each are performed, in an equidistant linear fashion. After each injection, 1 min of resting time is observed and then the muscle layer is sutured, the skin closed with staples, and the animals were allowed to recover with heated-pad before they were returned to their home cages. Animals are perfused for histological analysis after the last behavior test.
# The injection is performed with a borosilicate glass capillary (0.78/1 mm internal/external diameters) pulled to a fine point, attached by polyethylene tubing (0.4/0.8 mm internal/external diameters) to a syringe mounted in a microinjection pump. The needle is mounted on an extended arm of a stereotaxic frame swung to the outside (used to hold and manipulate the needle only). Tubing, syringe, and needle are all filled with water. One microliter air is taken up into the needle followed by 3 μL of the viral vector solution. The needle is loaded separately with this volume for each injection. Animals are anesthetized prior to surgery. Following an incision along the dorsal midline, the L4 and L5 DRG are exposed by removal of the lateral processes of the vertebrae. The epineurium lying over the DRG is opened, and the glass needle inserted into the ganglion, to a depth of 400 μm from the surface of the exposed ganglion. After a 3-minute delay to allow sealing of the tissue around the glass capillary tip, 1.1 μL virus solution was injected at a rate of 0.2 μL/minute. After a further delay of 2 minutes, the needle is removed. The L4 ganglion is injected first followed by the L5 ganglion. The muscles overlying the spinal cord are loosely sutured together with a 5-0 suture and the wound closed. Animals are allowed to recover at 37° C. and received postoperative analgesia.
# Rats are first anesthetized and then placed vertically with their head fixed in a stereotaxic frame. An incision is made in the base of the neck to expose the groove in the nuchal crest. An incision is made (1-2 mm) in the cisternal membrane to a depth such that cerebrospinal fluid leaks out. […]
# [2] = target: T1, engineered chimeric LGIC receptor SEQ ID NO:41 (Homo sapiens, UniProt P36544, F159M/H163T/I152M/K68T/N69T/Q70M/R155K/V154L/W156N/Y151P); assay: Plate reader YFP quench plots; assay type: cell-based; settings: FIG. 7
# T1 construct: expressed in transfected cells; host or cells: Lenti-X 293T cells stably expressing YFP (H148Q/I152L) reporter; pcDNA3.1(+) plasmid
# Experimental: Lenti-X 293T cells (LX293T, Clontech) were maintained in DMEM containing 10% FBS and 1% penicillin/streptomycin (Invitrogen). […] The next day, the cells were transiently transfected with 0.1 μg of DNA per well using standard Fugene protocol (Promega). On the day of assay, cells were washed 2 times in 1× extracellular solution (1×ECS: 140 mM NaCl, 5 mM KCl, 1 mM MgCl2, 2 mM CaCl2, 10 mM HEPES, 10 mM glucose, pH 7.2, mOsms 300). After the last wash, 100 μL of 1×ECS was added to the wells and the plate was incubated at 37° C. for 30 min. While incubating the plate, the drugs were diluted to a 2× concentration in 1×ECS-NaI (same components as 1×ECS except the 140 mM NaCl was replaced by 140 mM NaI). The plates were then read on a Flexstation3 (Molecular Devices). Each well, 8 wells at a time, of the plate is read for 2 min using a Flexstation3 (Molecular Devices) as follows: 1) a baseline YFP fluorescence is read for 17 sec, 2) 100 μL of ligand is added, and 3) the changes in YFP fluorescence are then measured every 1.3 sec for the remaining time.
# To further tune the responsiveness of the engineered LGIC receptors to native and non-native ligands, the binding pocket of each ligand in the alpha7-nAChR was modeled and the amino acid residues that form the binding pocket were mapped. […]
# T1 sequence (P36544 with tags, fused parts or gaps K68T/N69T/Q70M/Y151P/I152M/V154L/R155K/W156N/F159M/H163T): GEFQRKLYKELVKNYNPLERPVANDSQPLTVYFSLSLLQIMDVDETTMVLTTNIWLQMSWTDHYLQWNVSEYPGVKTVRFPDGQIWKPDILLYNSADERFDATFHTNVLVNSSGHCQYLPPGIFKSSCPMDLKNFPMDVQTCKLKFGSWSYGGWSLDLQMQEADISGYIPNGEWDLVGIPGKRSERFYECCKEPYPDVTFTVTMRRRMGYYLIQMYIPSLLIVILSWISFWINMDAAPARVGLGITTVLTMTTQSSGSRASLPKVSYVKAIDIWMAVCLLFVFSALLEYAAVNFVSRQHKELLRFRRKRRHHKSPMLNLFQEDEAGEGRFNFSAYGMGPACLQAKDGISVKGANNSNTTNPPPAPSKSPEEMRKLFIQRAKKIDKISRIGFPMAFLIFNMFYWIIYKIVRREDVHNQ
compound,measurement,setting,value
c1cnc2c(c1)C[C@@]1(CN3CCC1CC3)O2 [AZD-0328],duration of the reversal of mechanical hypersensitivity,[1]; after single IP injection,at least 2 days
same,effect on mechanical threshold in the absence of vector,[1]; contralateral side,no measurable effect
same,mechanical thresholds after second IP injection,"[1]; injected again on the third day, followed for 48 hours",recovery to non-injury baseline thresholds
same,reversal of mechanical hypersensitivity,"[1]; high dose of ligand, all rats (Chimera 1-8)",complete reversal
same,reversal of mechanical hypersensitivity,"[1]; low dose, rats receiving Chimera 1, 2, 4, 5, 6 and 8",complete reversal
same,reversal of mechanical hypersensitivity,"[1]; low dose, rats receiving Chimera 3 and 7",partial reversal
same,response of Chimera #41 compared with Chimera #33,[2],responds to lower doses
